According to patent US4668698A, “[(4-phenyl-1,3-dioxan-cis-5-yl)alkyl]phenylalkanoic acid derivatives” (Imperial Chemical Industries PLC, priority 1983, dated 1987):

What was measured:
[1] = test system: blood pressure at the carotid artery; assay: hypertensive effect of U46619 in anaesthetised rats (test d); assay type: in vivo, rats (Alderley Park strain); details: Rattus norvegicus, iv; intravenously via the jugular vein, anaesthetised male rats, n=3; read-out: ED50 (dose necessary to produce 50% of the maximum hypertensive effect)
Procedure: (d) Male rats (Alderley Park strain) are anaesthetised with sodium pentobarbital and blood pressure is monitored at the carotid artery. The TXA2 mimetic agent U46619 is administered intravenously via the jugular vein and an ED50 (dose necessary to produce 50% of the maximum hypertensive effect) is established (n=3). The ED50 for U46619 is approximately 5 μg/kg. A test compound is then administered either intravenously via the jugular vein or orally via a cannula directly into the stomach and the animal challenged with an ED50 dose of U46619, five minutes after dosing with test compound and then successively every ten minutes until the hypertensive effect of U46619 is no longer blocked.

[2] = test system: rabbit aortal strip (TXA2 mimetic agent U46619 as agonist); assay: rabbit aortal strip model, antagonism of the TXA2 mimetic U46619 (test a); assay type: cell-based
From the text: (a) The rabbit aortal strip model devised by Piper and Vane (Nature, 1969, 223, 29-35) using as agonist the TXA2 mimetic agent known as U46619 (R. L. Jones et alia in "Chemistry, Biochemistry and Pharmacological Activity of Prostanoids", eds. S. M. Roberts and F. Scheinmann, at p. 211; Pergamon Press, 1979);

Work on `CCCCC[C@H](O)/C=C/[C@@H]1[C@@H](C/C=C\CCCC(=O)O)[C@H]2CO[C@@H]1C2` [Example U46619] yielded an ED50 [1] of ~5 µg/kg.

`CC1(C)OC[C@H](Cc2ccccc2CCCC(=O)O)[C@H](c2ccccc2O)O1` (relative stereo) [Example 3, 4-(o-[2,2-dimethyl-4-o-hydroxyphenyl-1,3 dioxan cis-5-ylmethyl]phenyl)butanoic acid] was tested, and the pA2 [2] was 6.19.
